In patent US11447445B2, “Diabetes and metabolic syndrome treatment with a novel dual modulator of soluble epoxide hydrolase and peroxisome proliferator-activated receptors” (priority 2015, dated 2022):
Values after ≈ are worked out from the molar mass of the structure shown. Read-outs that look alike come from different tables or passages of the source.

Legend:
[1] = target: T1, PPARα (Homo sapiens, UniProt Q07869); format: cell-based
T1 construct: expressed in transfected cells; host or cells: COS-7
T1 sequence (Q07869 239-466): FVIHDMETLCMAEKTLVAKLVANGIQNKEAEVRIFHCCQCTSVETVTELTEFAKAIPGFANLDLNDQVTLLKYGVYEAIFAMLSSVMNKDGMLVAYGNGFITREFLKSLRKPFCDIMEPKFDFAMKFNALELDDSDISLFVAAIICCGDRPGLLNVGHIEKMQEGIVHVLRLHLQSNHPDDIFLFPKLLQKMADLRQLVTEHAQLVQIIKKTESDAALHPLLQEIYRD
Procedure: (§1) COS-7 cells (PPAR) were grown in DMEM high glucose, supplemented with 10% fetal calf serum (FCS), 1% sodium pyruvate (SP) and 1% penicillin/streptomycin (PS) at 37° C. and 5% CO2. Used plasmids for PPAR transactivation assay are shown under supporting informations.
(§2) The day before transfection, COS-7 cells were seeded in 96-well plates with a density of 30,000 cells per well. Transient transfection was carried out using Lipofectamine LTX reagent (Invitrogen, Carlsbad, Calif., USA) according to the manufacturer's protocol with pFR-Luc (Stratagene), pRL-SV40 (Promega) and the Ga14-fusion receptor plasmids (pFA-CMV-hPPAR-LBD) of the respective PPAR subtype. 5 h after transfection, medium was changed to DMEM without phenol red and 10% FCS, supplemented with 1% SP, 1% PS and 1% L-glutamine, now additionally containing 0.1% DMSO and the respective test compound or 0.1% DMSO alone as untreated control. Each concentration was tested in triplicate wells and each experiment was repeated independently at least three times. Following overnight incubation with the test compounds, cells were assayed for luciferase activity using Dual-Glo™ Luciferase Assay System (Promega) according to the manufacturer's protocol. Luminescence was measured with an Infinite m200 luminometer (Tecan Deutschland GmbH). Each concentration of the compounds was tested in triplicate wells. Normalization for transfection efficacy and cell growth was done by division of the firefly luciferase data by renilla luciferase data resulting in relative light units. Activation factors were obtained by dividing by DMSO control. […] All compounds were evaluated by comparison of the achieved maximum effect to that of the reference compound (pioglitazone for PPARγ, GW7647 for PPARa, and L165041 for PPARS each with 1 μM). Data are expressed as mean±SE; n≥3.
(§3) The Gal4-fusion receptor plasmids pFA-CMV-PPARa-LBD, pFA-CMV-PPARS-LBD and pFA-CMV-PPARγ-LBD containing the hinge region and ligand binding domain (LBD) for each of the PPAR subtypes, respectively, were constructed by integrating cDNA fragments obtained from PCR amplification of human monocytes into the SmaI/XbaI cleavage site of the pFA-CMV vector (Stratagene, La Jolla, Calif., USA) and have already been published. […] Frame and sequence of the fusion receptors were verified by sequencing. pFR-Luc (Stratagene) was used as reporter plasmid and pRL-SV40 (Promega) for normalization of transfection efficacy and cell growth.

[2] = target: T2, recombinant human sEH (Homo sapiens, UniProt P34913); assay: biochemical; details: for inhibition at 10 µM: read-out: sEH inhibition @10 μM (converted)
T2 sequence (P34913 1-555): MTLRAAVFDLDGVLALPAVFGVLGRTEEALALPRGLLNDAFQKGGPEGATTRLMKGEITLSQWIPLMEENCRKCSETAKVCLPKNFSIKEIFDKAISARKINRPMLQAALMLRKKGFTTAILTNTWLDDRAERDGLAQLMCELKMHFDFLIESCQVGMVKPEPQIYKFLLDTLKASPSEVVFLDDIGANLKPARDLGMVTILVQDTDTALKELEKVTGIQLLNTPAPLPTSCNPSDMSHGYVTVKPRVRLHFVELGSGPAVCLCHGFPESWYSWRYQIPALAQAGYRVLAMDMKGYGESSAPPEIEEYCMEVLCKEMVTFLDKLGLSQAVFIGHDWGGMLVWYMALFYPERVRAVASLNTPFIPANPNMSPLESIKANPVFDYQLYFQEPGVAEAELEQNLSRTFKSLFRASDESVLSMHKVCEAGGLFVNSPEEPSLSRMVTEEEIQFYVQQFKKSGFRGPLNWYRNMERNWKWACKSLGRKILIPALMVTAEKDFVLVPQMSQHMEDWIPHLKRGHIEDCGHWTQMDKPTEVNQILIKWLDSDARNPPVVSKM

[3] = target: T3, PPARδ (Homo sapiens, UniProt Q03181); assay: PPAR transactivation assay in COS-7 cells (Gal4-hPPAR-LBD, luciferase); format: cell-based
T3 construct: expressed in transfected cells; host or cells: COS-7
T3 sequence (Q03181 211-439): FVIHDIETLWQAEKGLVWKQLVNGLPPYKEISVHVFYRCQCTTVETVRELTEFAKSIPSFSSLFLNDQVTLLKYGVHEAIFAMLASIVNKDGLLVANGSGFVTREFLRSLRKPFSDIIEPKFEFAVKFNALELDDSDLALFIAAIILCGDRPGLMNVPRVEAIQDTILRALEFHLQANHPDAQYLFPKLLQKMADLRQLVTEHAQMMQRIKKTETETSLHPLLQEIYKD
Procedure: as §1, §2, §3

[4] = target: T4, PPARγ (Homo sapiens, UniProt P37231); assay: cell-based; format: cell-based; details: for activation at 10 µM: COS-7, read-out: PPARγ activation @10 μM, at 10 μM, compared to pioglitazone 1 μM; for EC50 PPARγ: i.a. = inactive
T4 construct: expressed in transfected cells; host or cells: COS-7
T4 sequence (P37231 238-503): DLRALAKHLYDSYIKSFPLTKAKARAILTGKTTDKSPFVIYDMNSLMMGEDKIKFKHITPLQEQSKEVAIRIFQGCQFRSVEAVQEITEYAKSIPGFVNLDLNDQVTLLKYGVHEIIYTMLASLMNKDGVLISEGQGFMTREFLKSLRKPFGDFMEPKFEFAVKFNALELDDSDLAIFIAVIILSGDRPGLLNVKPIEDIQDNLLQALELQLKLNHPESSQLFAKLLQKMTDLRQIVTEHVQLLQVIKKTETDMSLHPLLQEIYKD
Procedure: as §1, §2, §3

[5] = Water solubility approximation; format: physicochemical; details: PBS with 0.01% Polysorbate 20, aqueous with cosolvent or surfactant or cyclodextrin, kinetic from dmso stock; PBS pH 7.4, 0.01% Polysorbate 20, 1% DMSO; precipitation at 650 nm; read-out: w.s. (water solubility)
Procedure: PBS at pH 7.4 with 0.01% Polysorbate 20 (Tween) was combined with 1% of a DMSO solution of the inquired compound in a 96-well transparent flat bottom microtiter plate. Precipitation of the compound was measured at 650 nm with a Tecan Infinite 200 (Tecan Group Ltd, Mannedorf, Switzerland).

[6] = after p.o. 30 mg/kg bw of 1b, all time points
Procedure: Blood was sampled 15 min, 30 min, 1 h, 2 h, 4 h and 8 h after test item application and only 8 h after vehicle application. Each drug treated mouse was sampled twice (0.25 and 0.5 h, 1 and 2 h, 4 and 8 h) via retro orbital puncture. Blood was collected in tubes containing lithium-heparin, stored on ice and subsequently centrifuged at 6000 rpm for 10 minutes at 4° C. (Heraeus biofuge fresco). The plasma was prepared within 45 min after sampling and kept at −20° C. until being assayed. For further kinetic and dynamic analysis the tissues (brain, liver, abdominal fat) were collected 30 min, 2h and 8 h post dose, after the second plasma sampling of each drug treated mouse. Tissue of the vehicle group was sampled only once, 8 h post dose. A volume of 40 μl acetonitrile containing the internal standard (300 ng/ml Diazepam) was added to 20 μl of mouse plasma sample, plasma calibration standard and plasma QC samples. Samples were vigorously shaken and centrifuged for 10 minutes at 6000 g and 20° C. The particle free supernatant was diluted 1:1 with water. An aliquot was transferred to 200 μl sampler vials and subsequently subjected to LC MS with an injection volume of 20 pl. The brain samples were homogenized in PBS (1+1, w/v) using the Precellys 24/Dual homogenizer. A volume of 20 μl of the brain homogenate was mixed (1+1 v/v/) with 20 μl mouse blank plasma. Then 80 μl acetonitrile containing the internal standard (300 ng/ml Diazepam) were added. Samples were vigorously shaken and centrifuged for 10 minutes at 6000 g and 20° C. The particle free supernatant was diluted 1:1 with water. An aliquot was transferred to 200 μl sampler vials and subsequently subjected to LC MS with an injection volume of 20 μl. Mass spectrometry was performed on a TSQ Quantum Discovery Max triple quadrupole mass spectrometer equipped with an electrospray (ESI) interface (Thermo Fisher Scientific, USA) connected to a PC running the standard software Xcalibur 2.0.7. […]

[7] = read-out: sEH IC50 / inhibitory potency (unit inferred)

SMILES: CON(C)C(=O)C1CC1c1ccc(C(=O)NCc2ccccc2C(F)(F)F)cc1 (centres unmarked) [Compound 21, N-Methoxy-N-methyl 3-[4-(N-((2-trifluoromethyl)benzyl)benzamide)]cyclopropanecarboxamide]
- EC50 PPARα ([1]; i.a. = inactive): i.a.
- sEH IC50 / inhibitory potency (unit not given) [2]: double-digit nanomolar range
- IC50 ([2]; read-out: IC50 sEH (converted)): 80 ± 4 nM
- EC50 PPARδ ([3]; i.a. = inactive): i.a.
- activation at 10 µM [4]: 30%

SMILES: O=C(O)CCc1ccc(C(=O)NCc2ccccc2C(F)(F)F)cc1 [Compound 16c, 3-[4-(N-((2-trifluoromethyl)benzyl)benzamide)]propionic acid]
- EC50 PPARα ([1]; i.a. = inactive): i.a.
- IC50 ([2]; read-out: IC50 sEH (converted)): 9000 ± 1700 nM
- EC50 PPARδ ([3]; i.a. = inactive): i.a.
- solubility [5]: 500 µM (≈ 176 µg/mL)

SMILES: CCOC(=O)C(CC)Cc1ccc(C(=O)NCc2ccccc2Br)cc1 (centres unmarked) [Compound 5b, Ethyl 2-ethyl 3-[4-(N-((2-bromo)benzyl)benzamide)]propanoate]
- EC50 PPARα ([1]; i.a. = inactive): n.t. i.a. i.a. n.t.
- EC50 PPARδ ([3]; i.a. = inactive): n.t. i.a. i.a. n.t.
- EC50 PPARγ [4]: i.a.
- solubility [5]: 25 µM (≈ 10.5 µg/mL)

SMILES: CCC(Cc1ccc(C(=O)NCc2ccccc2OC(F)(F)F)cc1)C(=O)O (centres unmarked) [Compound 6c, 2-Ethyl 3-[4-(N-((2-trifluoromethoxy)benzyl)benzamide)]propionic acid]
- EC50 PPARα ([1]; i.a. = inactive): n.t. i.a. i.a. n.t.
- inhibition at 10 µM [2]: 23%
- EC50 PPARδ ([3]; i.a. = inactive): n.t. i.a. i.a. n.t.
- solubility [5]: 500 µM (≈ 198 µg/mL)

SMILES: CCOC(=O)/C=C/c1ccc(C(=O)NCc2ccccc2C(F)(F)F)cc1 [Compound 16a, Ethyl (E)-4-[N-((2-trifluoromethyl)benzyl)benzamide]-cinnamate]
- EC50 PPARα ([1]; i.a. = inactive): i.a.
- IC50 ([2]; read-out: IC50 sEH (converted)): 130 ± 5 nM
- EC50 PPARδ ([3]; i.a. = inactive): i.a.
- solubility [5]: 2.5 µM (≈ 0.943 µg/mL)

SMILES: O=C(NCc1ccccc1C(F)(F)F)c1ccc(CC(C(=O)O)c2ccccc2)cc1 (centres unmarked) [Compound 19c, 2-Phenyl 3-[4-(N-((2-trifluoromethyl)benzyl)benzamide)]propionic acid]
- EC50 PPARα ([1]; i.a. = inactive): i.a.
- IC50 ([2]; read-out: IC50 sEH (converted)): 2500 ± 500 nM
- EC50 PPARδ ([3]; i.a. = inactive): i.a.
- solubility [5]: 100 µM (≈ 42.7 µg/mL)

SMILES: O=C(O)c1ccc(-c2ccc(C(=O)NCc3ccccc3C(F)(F)F)cc2)cc1 [Compound 25]
- EC50 PPARα [1]: i.a.
- IC50 ([2]; read-out: IC50 sEH (converted)): 170 nM
- EC50 PPARδ [3]: i.a.
- activation at 10 µM [4]: ~30%
- solubility [5]: 5 µM (≈ 2 µg/mL)

SMILES: CCC(Cc1ccc(C(=O)NCc2ccc(OC)cc2)cc1)C(=O)O (centres unmarked) [Compound 10c, 2-Ethyl 3-[4-(N-((4-methoxy)benzyl)benzamide)]propionic acid]
- EC50 PPARα ([1]; i.a. = inactive): n.t. i.a. i.a. n.t.
- inhibition at 10 µM [2]: 34%
- EC50 PPARδ ([3]; i.a. = inactive): n.t. i.a. i.a. n.t.
- solubility [5]: 500 µM (≈ 171 µg/mL)

SMILES: O=C(NCc1ccccc1C(F)(F)F)c1ccc(-c2nnn[nH]2)cc1 [Compound 28, [N-(2-(Trifluoromethyl)benzyl)benzamid]-4-(1H-tetrazole)]
- EC50 PPARα ([1]; i.a. = inactive): i.a.
- IC50 ([2]; read-out: IC50 sEH (converted)): 5000 nM
- EC50 PPARδ ([3]; i.a. = inactive): i.a.
- EC50 PPARγ [4]: i.a.
- solubility [5]: 500 µM (≈ 174 µg/mL)

SMILES: CCC(Cc1ccc(C(=O)NCc2ccccc2Br)cc1)C(=O)O (centres unmarked) [Compound 5c, 2-Ethyl 3-[4-(N-((2-bromo)benzyl)benzamide)]propionic acid]
- EC50 PPARα ([1]; i.a. = inactive): n.t. i.a. i.a. n.t.
- inhibition at 10 µM [2]: 34%
- EC50 PPARδ ([3]; i.a. = inactive): n.t. i.a. i.a. n.t.
- solubility [5]: 500 µM (≈ 195 µg/mL)

SMILES: N#Cc1ccc(C(=O)NCc2ccccc2C(F)(F)F)cc1 [Compound 27, 4-Cyano-N-(2-(trifluoromethyl)benzyl)benzamide]
- EC50 PPARα ([1]; i.a. = inactive): remained unaffected
- IC50 [2, 7]: 64 nM
- EC50 PPARδ ([3]; i.a. = inactive): remained unaffected
- EC50 PPARγ [4]: remained unaffected

SMILES: O=C(O)c1cccc(-c2ccc(C(=O)NCc3ccccc3C(F)(F)F)cc2)c1 [Compound 26]
- EC50 PPARα [1]: i.a.
- IC50 [2, 7]: 1000 nM
- EC50 PPARδ [3]: i.a.
- activation at 10 µM [4]: ~30%

SMILES: CON(C)C(=O)/C=C/c1ccc(C(=O)NCc2ccccc2C(F)(F)F)cc1 [Compound 20]
- EC50 PPARα ([1]; i.a. = inactive): i.a.
- IC50 ([2]; read-out: IC50 sEH (converted)): 70 ± 20 nM
- EC50 PPARδ ([3]; i.a. = inactive): i.a.
- EC50 PPARγ [4]: i.a.

SMILES: CCCC(Cc1ccc(C(=O)NCc2ccccc2C(F)(F)F)cc1)C(=O)OCC (centres unmarked) [Compound 18b, Ethyl 2-propyl 3-[4-(N-((2-trifluoromethyl)benzyl)benzamide)]propanoate]
- EC50 PPARα ([1]; i.a. = inactive): i.a.
- IC50 ([2]; read-out: IC50 sEH (converted)): 170 ± 40 nM
- EC50 PPARδ ([3]; i.a. = inactive): i.a.
- solubility [5]: 5 µM (≈ 2.11 µg/mL)

SMILES: O=C(O)/C=C/c1ccc(C(=O)NCc2ccccc2C(F)(F)F)cc1 [Compound 16d, (E)-4-[N-((2-Trifluoromethyl)benzyl)benzamide]-cinnamic acid]
- EC50 PPARα ([1]; i.a. = inactive): i.a.
- IC50 ([2]; read-out: IC50 sEH (converted)): 800 ± 50 nM
- EC50 PPARδ ([3]; i.a. = inactive): i.a.
- solubility [5]: 10 µM (≈ 3.49 µg/mL)

SMILES: CCOC(=O)C(Cc1ccc(C(=O)NCc2ccccc2C(F)(F)F)cc1)c1ccccc1 (centres unmarked) [Compound 19b, Ethyl 2-phenyl 3-[4-(N-((2-trifluoromethyl)benzyl)benzamide)]propanoate]
- EC50 PPARα ([1]; i.a. = inactive): i.a.
- IC50 ([2]; read-out: IC50 sEH (converted)): 120 ± 13 nM
- EC50 PPARδ ([3]; i.a. = inactive): i.a.
- solubility [5]: 5 µM (≈ 2.28 µg/mL)

SMILES: CCOC(=O)CCc1ccc(C(=O)NCc2ccccc2C(F)(F)F)cc1 [Compound 16b, Ethyl 3-[4-(N-((2-trifluoromethyl)benzyl)benzamide)]propanoate]
- EC50 PPARα ([1]; i.a. = inactive): i.a.
- IC50 ([2]; read-out: IC50 sEH (converted)): 110 ± 3 nM
- EC50 PPARδ ([3]; i.a. = inactive): i.a.
- solubility [5]: 5 µM (≈ 1.9 µg/mL)

SMILES: CCCC(Cc1ccc(C(=O)NCc2ccccc2C(F)(F)F)cc1)C(=O)O (centres unmarked) [Compound 18c, 2-Propyl 3-[4-(N-((2-trifluoromethyl)benzyl)benzamide)]propionic acid]
- EC50 PPARα ([1]; i.a. = inactive): i.a.
- IC50 ([2]; read-out: IC50 sEH (converted)): 5000 ± 1300 nM
- EC50 PPARδ ([3]; i.a. = inactive): i.a.
- solubility [5]: 500 µM (≈ 197 µg/mL)

SMILES: CC(Cc1ccc(C(=O)NCc2ccccc2C(F)(F)F)cc1)C(=O)O (centres unmarked) [Compound 17c, 2-Methyl 3-[4-(N-((2-trifluoromethyl)benzyl)benzamide)]propionic acid]
- EC50 PPARα ([1]; i.a. = inactive): i.a.
- IC50 ([2]; read-out: IC50 sEH (converted)): 8000 ± 1600 nM
- EC50 PPARδ ([3]; i.a. = inactive): i.a.
- solubility [5]: 500 µM (≈ 183 µg/mL)

SMILES: CCOC(=O)C(CC)Cc1ccc(C(=O)NCc2ccccc2C(F)(F)F)cc1 (centres unmarked) [Compound 1b, Ethyl 2-ethyl 3-[4-(N-((2-trifluoromethyl)benzyl)benzamide)]propanoate]
- EC50 PPARα ([1]; i.a. = inactive): i.a.
- 1b in plasma [6]: not detected
- IC50 ([2]; read-out: IC50 sEH (converted)): 44 ± 5 nM
- EC50 PPARδ ([3]; i.a. = inactive): i.a.
